Test results from patent US10730872B2, “Pesticidally active heterocyclic derivatives with sulphur containing sustitutents” (SYNGENTA PARTICIPATIONS AG, priority 2015, dated 2020).

How the values were obtained:
Assay type in all cases: in vivo
Plutella xylostella = Plutella xylostella (Diamond Back Moth); conditions: 120 h, application rate of 200 ppm, artificial diet, L2 larvae, 5 days after infestation, read-out: effect in at least one of the two categories (mortality or growth inhibition)
Description: (§1) 24-well microtiter plates with artificial diet were treated with aqueous test solutions prepared from 10,000 ppm DMSO stock solutions by pipetting. After drying, the plates were infested with L2 larvae (10 to 15 per well). The samples were assessed for mortality and growth inhibition in comparison to untreated samples 5 days after infestation.

Diabrotica balteata = Diabrotica balteata (Corn Root Worm); conditions: 96 h, application rate of 200 ppm, sprayed maize sprouts, L2 larvae, 4 days after infestation, read-out: effect in at least one of the two categories (mortality or growth inhibition)
Description: as §1, with “Maize sprouts placed onto an agar layer in 24-well” for “24-well”, “plates” for “plates with artificial diet”, “spraying.” for “pipetting.”, “(6” for “(10”, “10” for “15”, “4” for “5”

Tetranychus urticae = Tetranychus urticae (Two-Spotted Spider Mite): Feeding/Contact Activity; conditions: foliar, 192 h, application rate of 200 ppm, sprayed bean leaf discs, mixed population (mobile stages), 8 days after infestation
Description: Bean leaf discs on agar in 24-well microtiter plates were sprayed with aqueous test solutions prepared from 10,000 ppm DMSO stock solutions. After drying the leaf discs were infested with a mite population of mixed ages. The samples were assessed for mortality on mixed population (mobile stages) 8 days after infestation.

Spodoptera littoralis = Spodoptera littoralis (Egyptian Cotton Leaf Worm), sprayed cotton leaf discs; conditions: foliar, 72 h, application rate of 200 ppm, L1 larvae, 3 days after infestation
Description: Cotton leaf discs were placed onto agar in 24-well microtiter plates and sprayed with aqueous test solutions prepared from 10,000 ppm DMSO stock solutions. After drying the leaf discs were infested with five L1 larvae. The samples were assessed for mortality, anti-feeding effect, and growth inhibition in comparison to untreated samples 3 days after infestation. Control of Spodoptera littoralis by a test sample is given when at least one of the categories mortality, anti-feedant effect, and growth inhibition is higher than the untreated sample.

Bemisia tabaci = Bemisia tabaci (Cotton White Fly): Feeding/Contact Activity; conditions: foliar, 144 h, application rate of 200 ppm, sprayed cotton leaf discs, adult white flies, 6 days after incubation
Description: Cotton leaf discs were placed on agar in 24-well microtiter plates and sprayed with aqueous test solutions prepared from 10,000 ppm DMSO stock solutions. After drying the leaf discs were infested with adult white flies. The samples were checked for mortality 6 days after incubation.

Euschistus heros = Euschistus heros (Neotropical Brown Stink Bug); conditions: 120 h, application rate of 200 ppm, sprayed soybean leaves, N2 nymphs, 5 days after infestation, read-out: effect in at least one of the two categories (mortality or growth inhibition)
Description: Soybean leaves on agar in 24-well microtiter plates were sprayed with aqueous test solutions prepared from 10,000 ppm DMSO stock solutions. After drying the leaves were infested with N2 nymphs. The samples were assessed for mortality and growth inhibition in comparison to untreated samples 5 days after infestation.

Myzus persicae [1] = assay: Myzus persicae (Green Peach Aphid): Feeding/Contact Activity; conditions: foliar, 144 h, application rate of 200 ppm, sprayed sunflower leaf discs, aphid population of mixed ages, 6 days after infestation
Description: Sunflower leaf discs were placed onto agar in a 24-well microtiter plate and sprayed with aqueous test solutions prepared from 10,000 ppm DMSO stock solutions. After drying, the leaf discs were infested with an aphid population of mixed ages. The samples were assessed for mortality 6 days after infestation.

Myzus persicae [2] = assay: Myzus persicae (Green Peach Aphid). Systemic Activity; conditions: 144 h, test rate of 24 ppm, roots of infested pea seedlings in test solution, 6 days
Description: Roots of pea seedlings infested with an aphid population of mixed ages were placed directly into aqueous test solutions prepared from 10,000 DMSO stock solutions. The samples were assessed for mortality 6 days after placing seedlings into test solutions.

CCn1c(C(F)(F)F)cc2nc(-c3nc(NCC(F)(F)F)ccc3S(=O)(=O)CC)n(C)c2c1=O [Compound A34, 5-ethyl-2-[3-ethylsulfonyl-6-(2,2,2-trifluoroethylamino)-2-pyridyl]-3-methyl-6-(trifluoromethyl)imidazo[4,5-c]pyridin-4-one]
≥ 80%: percent effect (mortality or growth inhibition) at 200 ppm (Plutella xylostella) | effect mortality or growth inhibition at 200 ppm (Diabrotica balteata) | mortality at 200 ppm (Tetranychus urticae) | percent control (mortality, anti-feeding effect or growth inhibition) at 200 ppm (Spodoptera littoralis)

CCn1c(C(F)(F)F)cc2nc(-c3nc(N(CC(F)(F)F)C(=O)C4CC4)ccc3S(=O)(=O)CC)n(C)c2c1=O [Compound A32, N-[6-[5-ethyl-3-methyl-4-oxo-6-(trifluoromethyl)imidazo[4,5-c]pyridin-2-yl]-5-ethylsulfonyl-2-pyridyl]-N-(2,2,2-trifluoroethyl)cyclopropanecarboxamide]
≥ 80%: percent effect (mortality or growth inhibition) at 200 ppm (Plutella xylostella) | effect mortality or growth inhibition at 200 ppm (Diabrotica balteata) | mortality at 200 ppm (Tetranychus urticae) | percent control (mortality, anti-feeding effect or growth inhibition) at 200 ppm (Spodoptera littoralis)

CCn1c(C(F)(F)F)cc2nc(-c3ncc(NC(=O)OC(C)(C)C)cc3S(=O)(=O)CC)n(C)c2c1=O [Compound A64, tert-butyl N-[6-[5-ethyl-3-methyl-4-oxo-6-(trifluoromethyl)imidazo[4,5-c]pyridin-2-yl]-5-ethylsulfonyl-3-pyridyl]carbamate]
≥ 80%: percent effect (mortality or growth inhibition) at 200 ppm (Plutella xylostella) | mortality at 200 ppm (Tetranychus urticae) | mortality at 200 ppm (Bemisia tabaci) | percent effect (mortality or growth inhibition) at 200 ppm (Euschistus heros) | percent control (mortality, anti-feeding effect or growth inhibition) at 200 ppm (Spodoptera littoralis)

CCn1c(C(F)(F)F)cc2nc(-c3ncc(NC4(C#N)CC4)cc3S(=O)(=O)CC)n(C)c2c1=O [Compound A24, 1-[[6-[5-ethyl-3-methyl-4-oxo-6-(trifluoromethyl)imidazo[4,5-c]pyridin-2-yl]-5-ethylsulfonyl-3-pyridyl]amino]cyclopropanecarbonitrile]
≥ 80%: percent effect (mortality or growth inhibition) at 200 ppm (Plutella xylostella) | effect mortality or growth inhibition at 200 ppm (Diabrotica balteata) | mortality at 200 ppm (Tetranychus urticae) | percent effect (mortality or growth inhibition) at 200 ppm (Euschistus heros) | percent control (mortality, anti-feeding effect or growth inhibition) at 200 ppm (Spodoptera littoralis)

CCn1c(C(F)(F)F)cc2nc(-c3nc(N)c(C4CC4)cc3S(=O)(=O)CC)n(C)c2c1=O [Compound A71]
≥ 80%: percent effect (mortality or growth inhibition) at 200 ppm (Plutella xylostella) | effect mortality or growth inhibition at 200 ppm (Diabrotica balteata) | mortality at 200 ppm (Myzus persicae [1]) | mortality at 200 ppm (Tetranychus urticae) | mortality at 24 ppm (Myzus persicae [2]) | mortality at 200 ppm (Bemisia tabaci) | percent effect (mortality or growth inhibition) at 200 ppm (Euschistus heros) | percent control (mortality, anti-feeding effect or growth inhibition) at 200 ppm (Spodoptera littoralis)

CCn1c(C(F)(F)F)cc2nc(-c3nc(C(=O)O)ccc3S(=O)(=O)CC)n(C)c2c1=O [Compound A4, 6-[5-ethyl-3-methyl-4-oxo-6-(trifluoromethyl)imidazo[4,5-c]pyridin-2-yl]-5-ethylsulfonyl-pyridine-2-carboxylic acid]
≥ 80%: mortality at 200 ppm (Tetranychus urticae)

CCn1c(C(F)(F)F)cc2nc(-c3ncc(N(C)S(C)(=O)=O)cc3S(=O)(=O)CC)n(C)c2c1=O [Compound A13, N-[6-[5-ethyl-3-methyl-4-oxo-6-(trifluoromethyl)imidazo[4,5-c]pyridin-2-yl]-5-ethylsulfonyl-3-pyridyl]-N-methyl-methanesulfonamide]
≥ 80%: percent effect (mortality or growth inhibition) at 200 ppm (Plutella xylostella) | mortality at 200 ppm (Myzus persicae [1]) | mortality at 200 ppm (Tetranychus urticae) | percent effect (mortality or growth inhibition) at 200 ppm (Euschistus heros) | percent control (mortality, anti-feeding effect or growth inhibition) at 200 ppm (Spodoptera littoralis)

CCn1c(C(F)(F)F)cc2nc(-c3ncc(C(=O)NC4CC4)cc3S(=O)(=O)CC)n(C)c2c1=O [Compound A19, N-cyclopropyl-6-[5-ethyl-3-methyl-4-oxo-6-(trifluoromethyl)imidazo[4,5-c]pyridin-2-yl]-5-ethylsulfonyl-pyridine-3-carboxamide]
≥ 80%: percent effect (mortality or growth inhibition) at 200 ppm (Plutella xylostella) | mortality at 200 ppm (Tetranychus urticae) | mortality at 24 ppm (Myzus persicae [2]) | percent effect (mortality or growth inhibition) at 200 ppm (Euschistus heros)
